For 17 molecules, MIC, Activity and inhibition of growth results are on record in ChEMBL document CHEMBL5352418, “Molecular networking assisted discovery and combinatorial biosynthesis of new antimicrobial pleuromutilins” (Eur J Med Chem, 2022).

Values after ≈ are worked out from the molar mass of the structure shown. Active and inactive are the calls of the source. The calls are words filed in the database; no cut-off is given here.

A word on the MIC: it is the lowest concentration that inhibits growth of the organism.

One series relates to Staphylococcus aureus. As to the kind of experiment: Antibacterial activity against methicillin-resistant Staphylococcus aureus clinical isolate assessed as bacterial growth inhibition by CLSI protocol based broth microdilution method. Type of series: functional. (In general: In broth dilution the organism is exposed to a series of concentrations in liquid medium.)
For series [1], the system named is RAW264.7. In words: Cytotoxicity activity mouse RAW264.7 cells assessed as reduction in cell viability at upto 100 uM incubated for 48 hrs by CCK-8 assay. Type of series: toxicity, cell-based. Conditions: raw264.7, 48 h. Background: Tetrazolium dyes change colour on reduction, which living cells bring about.
Series [2] relates to RAW264.7. In words: Immunostimulatory activity in mouse RAW264.7 cells assessed as increase in cell viability at 1 uM incubated for 48 hrs by CCK-8 assay. The series is classed as functional.
In another series the test system is Enterococcus faecalis. In words: Antibacterial activity against vancomycin-resistant Enterococcus faecalis clinical isolate assessed as bacterial growth inhibition by CLSI protocol based broth microdilution method. The series is classed as functional.
In series [3] the test system is RAW264.7. As to the kind of experiment: Immunostimulatory activity in mouse RAW264.7 cells assessed as increase in IL-6 production level at 1 uM incubated for 24 hrs by ELISA. The series is classed as functional, cell-based. Background: An ELISA detects its analyte on a solid surface through an enzyme-linked reagent.
For series [4], the system named is RAW264.7. As to the kind of experiment: Immunostimulatory activity in mouse RAW264.7 cells assessed as increase in TNF-alpha production level at 1 uM incubated for 24 hrs by ELISA. Type of series: functional, cell-based.
Series [5] deals with RAW264.7. As to the kind of experiment: Immunostimulatory activity in mouse RAW264.7 cells assessed as increase in NO production at 1 uM incubated for 24 hrs by Griess method. Type of series: functional, cell-based.
Series [6] has as its system Escherichia coli. As to the kind of experiment: Antibacterial activity against Escherichia coli OP50 assessed as bacterial growth inhibition at 20 uM by CLSI protocol based broth microdilution method. Type of series: functional. The following applies: read-out: GI.
The subject of the next series is Pseudomonas aeruginosa. In words: Antibacterial activity against Pseudomonas aeruginosa PA01 assessed as bacterial growth inhibition at 20 uM by CLSI protocol based broth microdilution method. Type of series: functional. The following applies: read-out: GI.
In series [7] the test system is RAW264.7. In words: Immunostimulatory activity in mouse RAW264.7 cells assessed as increase in cell viability at 0.078 to 10 uM incubated for 48 hrs by CCK-8 assay. The series is classed as functional, cell-based. Conditions: dose 0.078-10 µM.
For series [8], the system named is Escherichia coli. As to the kind of experiment: Antibacterial activity against enteropathogenic Escherichia coli […] assessed as bacterial growth inhibition at 20 uM by CLSI protocol based broth microdilution method. Type of series: functional. The following applies: read-out: GI.
Series [9] has as its system RAW264.7. In words: Immunostimulatory activity in mouse RAW264.7 cells assessed as increase in ROS production by measuring fluorescence intensity at 1 uM incubated for 24 hrs by DCFH-DA staining based fluorescence microplate reader assay. The series is classed as functional, cell-based.

As for `C=C[C@@]1(C)C[C@H](C)[C@]23CCC(=O)C2[C@@](C)([C@H](C)CC3)[C@H](OC(C)=O)C1` (stereo partly drawn), the MIC in the series on Staphylococcus aureus came out at 12.5 µM (≈ 4.33 µg/mL); in the series with Enterococcus faecalis, 1.25 µM (≈ 0.433 µg/mL). Moreover, the Activity entry with RAW264.7 [1] is reported as “Non-Toxic”. For the same molecule, in the series with RAW264.7 [2], the result was inactive.
In the case of `C=C[C@]1(C)C[C@@H](O)[C@@]2(C)C3=CC(=O)C[C@@]3(CC[C@H]2C)[C@@H](C)[C@@H]1O`, the MIC in the series on Staphylococcus aureus and with Enterococcus faecalis was greater than 20 µM throughout. Further, the outcome with RAW264.7 [3] and with RAW264.7 [4] was Active. Besides, in the series with RAW264.7 [1], the Activity result was “Non-Toxic”. For the same molecule, the outcome with RAW264.7 [2] was inactive.
As for `C=C[C@]1(C)C[C@@H](O)[C@@]2(C)C3[C@H](O)CC[C@@]3(CC[C@H]2C)[C@@H](C)[C@@H]1O` (stereo partly drawn), the values for the MIC in the series on Staphylococcus aureus and in the series on Enterococcus faecalis were 12.5 µM (≈ 4.03 µg/mL) and 20 µM (≈ 6.45 µg/mL), respectively. Moreover, the Activity result in the series with RAW264.7 [1] is recorded as “Non-Toxic”. Further, the result with RAW264.7 [2] was inactive.
In the case of `C=C[C@@]1(C)C[C@H](C)[C@]23CC[C@@H](O)C2[C@@](C)([C@H](C)CC3)[C@H](OC(C)=O)C1` (stereo partly drawn), the MIC is greater than 20 µM in the series on Staphylococcus aureus and 2.5 µM (≈ 0.871 µg/mL) with Enterococcus faecalis. The Activity result in the series with RAW264.7 [1] is recorded as “Non-Toxic”. In the series with RAW264.7 [2], the outcome was inactive. In addition, in the series on RAW264.7 [4], the result was Active.
The matching figures for `C=C[C@]1(C)C[C@@H](OC(=O)CO)[C@@]2(C)C3=CC(=O)C[C@@]3(CC[C@H]2C)[C@@H](C)[C@@H]1O`: greater than 20 µM, 5 µM (≈ 1.88 µg/mL), “Non-Toxic”, “inactive” and “Active”.
The matching figures for `C=C[C@]1(C)C[C@@H](O)[C@@]2(C)C3CCC[C@@]3(CC[C@H]2C)[C@@H](C)C1` (stereo partly drawn): 12.5 µM (≈ 3.63 µg/mL), 20 µM (≈ 5.81 µg/mL), “Non-Toxic”, “inactive” and “Active”.
Turning to `C=C[C@]1(C)C[C@@H](O)[C@@]2(C)C3[C@H](O)CC[C@@]3(CC[C@H]2C)[C@@H](C)C1` (stereo partly drawn), the MIC is 12.5 µM (≈ 3.83 µg/mL) with Staphylococcus aureus and 20 µM (≈ 6.13 µg/mL) in the series on Enterococcus faecalis. Besides, the Activity entry in the series with RAW264.7 [1] is reported as “Non-Toxic”. Further, in the series with RAW264.7 [2], the result was inactive.
Consider `C[C@@H]1CC[C@@]23CCC(=O)C2[C@]1(C)[C@H](OC(=O)CO)C[C@@](C)([C@H](O)CO)[C@@H](O)[C@@H]3C` (stereo partly drawn), for which the outcome in the series with RAW264.7 [5] and in the series with RAW264.7 [4] was Active. For the same molecule, in the series with Escherichia coli [6], the inhibition of growth at 20 µM stood at 50%. Further, the MIC in the series on Staphylococcus aureus is greater than 20 µM; with Enterococcus faecalis, 20 µM (≈ 8.25 µg/mL). In addition, the Activity entry in the series with RAW264.7 [1] is listed as “Non-Toxic”. The outcome with RAW264.7 [2] was inactive.
Consider `C=C[C@]1(C)C[C@@H](OC(=O)CO[C@H]2O[C@H](CO)[C@@H](O)[C@H](O)[C@H]2O)[C@@]2(C)C3C(=O)CCC3(CC[C@H]2C)[C@@H](C)[C@@H]1O` (single isomer, unassigned), for which the result with RAW264.7 [5] and with RAW264.7 [4] was Active. Further, the inhibition of growth at 20 µM in the series on Escherichia coli [6] was 21%. Besides, the MIC in the series with Staphylococcus aureus and in the series with Enterococcus faecalis was greater than 20 µM throughout. Moreover, the Activity entry with RAW264.7 [1] is “Non-Toxic”. Also, the result in the series with RAW264.7 [2] was inactive.
Take `C=C[C@]1(C)C[C@@H](OC(=O)CO)[C@@]2(C)C3C(=O)CC[C@@]3(CC[C@H]2C)[C@@H](C)[C@@H]1O` (stereo partly drawn): the inhibition of growth at 20 µM with Pseudomonas aeruginosa came out at 40%; in the series on Escherichia coli [6], 71%. The Activity entry with RAW264.7 [7] was “Dose-Dependent Effect”; in the series on RAW264.7 [1], “Non-Toxic”; in the series with RAW264.7 [2], 60%. In addition, the MIC with Staphylococcus aureus was 0.09 µM (≈ 0.0341 µg/mL); with Enterococcus faecalis it was 0.31 µM (≈ 0.117 µg/mL).
As to `C=C[C@]1(C)C[C@@H](OC(=O)CO)[C@@]2(C)C3C(=O)[C@H](O)CC3(CC[C@H]2C)[C@@H](C)[C@@H]1O` (single isomer, unassigned), the outcome in the series with RAW264.7 [5], with RAW264.7 [3] and with RAW264.7 [4] was Active. Further, the values for the inhibition of growth at 20 µM in the series on Escherichia coli [8] and with Escherichia coli [6] were 52% and 70%, respectively. Besides, the values for the MIC in the series on Staphylococcus aureus and in the series with Enterococcus faecalis were 3.12 µM (≈ 1.23 µg/mL) and 1.25 µM (≈ 0.493 µg/mL), respectively. In the series with RAW264.7 [1], the Activity result was “Non-Toxic”. In the series with RAW264.7 [2], the outcome was inactive.
As to `C=C[C@]1(C)C[C@@H](O)[C@@]2(C)C3C(=O)CC[C@@]3(CC[C@H]2C)[C@@H](C)[C@@H]1O` (stereo partly drawn), the result in the series on RAW264.7 [9] was Active. Moreover, the MIC in the series on Staphylococcus aureus came to 6.25 µM (≈ 2 µg/mL); in the series with Enterococcus faecalis it was 5 µM (≈ 1.6 µg/mL). For the same molecule, the Activity result in the series on RAW264.7 [1] was “Non-Toxic”. Besides, in the series with RAW264.7 [2], the result was inactive.
With `C[C@@H]1CC[C@@]23CCC(=O)C2[C@]1(C)[C@H](OC(=O)CO)C[C@@]1(C)[C@H](O)CO[C@H]1[C@@H]3C` (stereo partly drawn), the outcome in the series with RAW264.7 [5] and in the series on RAW264.7 [4] was Active. For the same molecule, in the series with Escherichia coli [6], the inhibition of growth at 20 µM came to 34%. The MIC in the series on Staphylococcus aureus was greater than 20 µM; with Enterococcus faecalis it was 20 µM (≈ 7.89 µg/mL). The Activity result in the series with RAW264.7 [1] was “Non-Toxic”. Moreover, the result in the series on RAW264.7 [2] was inactive.
On to `C=C[C@]1(C)C[C@@H](OC(C)=O)[C@@]2(C)C3C(=O)CC[C@@]3(CC[C@H]2C)[C@@H](C)[C@@H]1O` (stereo partly drawn), for which the result in the series with RAW264.7 [9] was Active. The inhibition of growth at 20 µM came to 51% with Pseudomonas aeruginosa and 61% in the series with Escherichia coli [6]. Besides, the results for the Activity result with RAW264.7 [7], with RAW264.7 [1] and in the series on RAW264.7 [2] were “Dose-Dependent Effect”, “Non-Toxic” and 60%, respectively. Besides, the MIC in the series on Staphylococcus aureus is 0.39 µM (≈ 0.141 µg/mL); in the series with Enterococcus faecalis it was 2.5 µM (≈ 0.906 µg/mL).
On to `C=C[C@]1(C)C[C@@H](OC(C)=O)[C@@]2(C)C3=CC(=O)C[C@@]3([C@H](O)C[C@H]2C)[C@@H](C)[C@@H]1O`, for which the MIC is greater than 20 µM in the series with Staphylococcus aureus and 5 µM (≈ 1.88 µg/mL) in the series on Enterococcus faecalis. Besides, the result in the series on RAW264.7 [3] and in the series with RAW264.7 [4] was Active. Further, the Activity entry in the series on RAW264.7 [1] is on record as “Non-Toxic”. In the series on RAW264.7 [2], the result was inactive.
For `C=C[C@]1(C)C[C@@H](OC(C)=O)[C@@]2(C)C3[C@H](O)CC[C@@]3(CC[C@H]2C)[C@@H](C)[C@@H]1O` (stereo partly drawn), the results for the inhibition of growth at 20 µM in the series on Pseudomonas aeruginosa and in the series on Escherichia coli [6] were 18% and 20%, respectively. Besides, the MIC with Staphylococcus aureus stood at 6.25 µM (≈ 2.28 µg/mL); in the series on Enterococcus faecalis, 0.625 µM (≈ 0.228 µg/mL). In the series on RAW264.7 [1], the Activity result is reported as “Non-Toxic”. In addition, in the series with RAW264.7 [2], the outcome was inactive. The result with RAW264.7 [4] was Active.
On to `CC(=O)OC[C@@H](O)[C@]1(C)C[C@@H](OC(=O)CO)[C@@]2(C)C3C(=O)CC[C@@]3(CC[C@H]2C)[C@@H](C)[C@@H]1O` (stereo partly drawn), for which the inhibition of growth at 20 µM in the series on Escherichia coli [6] turned out to be 21%. Besides, the MIC with Staphylococcus aureus and in the series with Enterococcus faecalis was greater than 20 µM in each case. For the same molecule, the result in the series with RAW264.7 [3] and in the series with RAW264.7 [4] was Active. In addition, in the series on RAW264.7 [1], the Activity result is “Non-Toxic”. Further, in the series on RAW264.7 [2], the outcome was inactive.
